Measurements as given in patent US20130030048A1, “COMPOSITION FOR INDUCING MULTIPLE NUCLEAR DIVISION OF CELLS” (priority 2010, published 2013).

System: Human Mammary Epithelial (HME) 50 HT cell line
Test: Multiple nuclear divisions in cultured HME 50 HT cells
Assay type: cell-based
Settings: HME 50 HT cells in serum-free medium; FIGS. 3 and 4
Procedure: Such a culture medium was treated with the composition comprising the compound of formula II obtained in the Example 1 and the compound of formula III obtained in the Examples 2 to 5, respectively.
And, it was found from the photomicrographs that the cells appeared very healthy and unstressed.

Structure (SMILES)	multiple nuclear divisions in the cell (stained-cell image)
CCC1(N)C(=O)COC=C1C (centres unmarked) [compound of formula III]	multiple nuclear divisions occurred in the cell
C=CC1(N)C(=O)COC=C1C (centres unmarked) [compound of formula II]	multiple nuclear divisions occurred in the cell
